Literature values as cited in patent publication US20130274331A1, “Method for Treating Hyperuricemia in Patients with Gout Using Halofenate or Halofenic Acid and an Anti-Inflammatory Agent” (Metabolex, Inc., priority 2012, published 2013).

Conditions: gout patients; monotherapy at 40, 80, 120, 160 and 240 mg/day

SMILES: O=c1[nH]cnc2c(CN3C[C@H](CO)[C@@H](O)C3)c[nH]c12 [BCX4208, 7-(((3R,4R)-3-hydroxy-4-(hydroxymethyl)pyrrolidin-1-yl)methyl)-3H-pyrrolo[3,2-d]pyrimidin-4(5H)-one]
- reduction of serum uric acid: rapidly and significantly reduced serum uric acid
